Reference: US9708339B2, “1,3-benzothiazinone, sulfoxide, and sulfone compounds with electrophilic substituent” (priority 2014, dated 2017)
“Also recorded” adds a separate entry of the source. Read-outs that look alike come from different tables or passages of the source.

Legend:
DprE1 = DprE1 (Mycobacterium tuberculosis, UniProt P9WJF0); conditions: cited from earlier work
H37Rv strain of Mtb = assay: Microplate alamar blue assay (MABA), in vitro anti-TB activity in 7H12 and GAS media; type: cell-based, Mycobacterium tuberculosis; conditions: for MIC / percentage in brackets after MIC >1, 7H12 / percentage in brackets after MIC >1, GAS: H37Rv; for activity against H37Rv strain of Mtb (in words): in vitro; for percentage in brackets after MIC >1, 7H12: 7H12 medium; for percentage in brackets after MIC >1, 7H12 / percentage in brackets after MIC >1, GAS: bracketed percentage not defined in the patent; for percentage in brackets after MIC >1, GAS: GAS medium
[1] = Mycobacterium tuberculosis, 7H12 medium (7H9 plus casitone, palmitic acid, albumin and catalase), read-out: MABA:MIC 7H12
[2] = Mycobacterium tuberculosis, GAS (glycerol-alanine-salts) medium, read-out: MABA:MIC GAS
[3] = 7H12 medium (7H9 plus casitone, palmitic acid, albumin and catalase), read-out: MABA:MIC 7H12
[4] = GAS (glycerol-alanine-salts) medium, read-out: MABA:MIC GAS

Sequence of DprE1 (P9WJF0 whole entry): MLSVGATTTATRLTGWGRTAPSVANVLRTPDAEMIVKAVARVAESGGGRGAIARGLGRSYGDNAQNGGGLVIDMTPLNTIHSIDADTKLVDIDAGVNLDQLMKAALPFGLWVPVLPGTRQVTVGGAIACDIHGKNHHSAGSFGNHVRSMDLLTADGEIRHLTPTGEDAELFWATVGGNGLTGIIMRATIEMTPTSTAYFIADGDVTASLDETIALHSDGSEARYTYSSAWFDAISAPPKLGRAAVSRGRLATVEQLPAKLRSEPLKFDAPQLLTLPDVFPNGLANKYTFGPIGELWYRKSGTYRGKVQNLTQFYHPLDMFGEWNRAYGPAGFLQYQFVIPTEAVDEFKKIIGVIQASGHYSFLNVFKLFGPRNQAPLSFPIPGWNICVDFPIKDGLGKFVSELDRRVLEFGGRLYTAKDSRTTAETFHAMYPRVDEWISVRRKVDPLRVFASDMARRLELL

Structure (SMILES) | MIC (H37Rv strain of Mtb; [1]) | MIC (H37Rv strain of Mtb; [2]) | MIC (H37Rv strain of Mtb; [3]) | MIC (H37Rv strain of Mtb; [4]) | other results
C[C@H]1COC2(CCN(c3nc(=O)c4cc(C(F)(F)F)cc([N+](=O)[O-])c4s3)CC2)O1 [BTZ043, reference compound] | < 0.004 µM | < 0.004 µM |  |  | mode of DprE1 inhibition (in words) (DprE1): suicide inhibitor
C[C@H]1COC2(CCN(c3nc(=O)c4cc(C(F)(F)F)cc(N=[N+]=[N-])c4s3)CC2)O1 [Compound 3] | 0.47 µM | 0.46 µM |  |  | activity against H37Rv strain of Mtb (in words) (H37Rv strain of Mtb): outstanding activity; also recorded: impressive activity; activity against H37Rv strain of Mtb (in words) (H37Rv strain of Mtb; listed as BTZ-N3): impressive activity
C[C@H]1COC2(CCN(c3nc(=O)c4cc(C(F)(F)F)cc(N)c4s3)CC2)O1 [Compound 6] |  |  | > 1 µM | > 1 µM | percentage in brackets after MIC >1, 7H12 (H37Rv strain of Mtb): 87%; percentage in brackets after MIC >1, GAS (H37Rv strain of Mtb): 0%
CC1COC2(CCN(c3nc(=O)c4cc(C(F)(F)F)ccc4s3)CC2)O1 (centres unmarked) [Compound 8] |  |  | > 1 µM | > 1 µM | percentage in brackets after MIC >1, 7H12 (H37Rv strain of Mtb): 87%; percentage in brackets after MIC >1, GAS (H37Rv strain of Mtb): 36%; activity against H37Rv strain of Mtb (in words) (H37Rv strain of Mtb): not significantly active; also recorded: reduced
C[C@H]1COC2(CCN(c3nc(=O)c4cc(C(F)(F)F)cc(-n5cc(CN(C)C)nn5)c4s3)CC2)O1 [Compound 9] | 0.87 µM | 0.95 µM |  |  | 
NNC(=O)c1ccncc1 [INH, reference compound] |  |  | 0.1 µM | 0.03 µM | 
O=c1nc(N2CCN(CC3CCCCC3)CC2)sc2c([N+](=O)[O-])cc(C(F)(F)F)cc12 [PBTZ169] |  |  |  |  | mode of DprE1 inhibition (in words) (DprE1): suicide inhibitor
CO[C@H]1/C=C/O[C@@]2(C)Oc3c(C)c(O)c4c(O)c(c(/C=N/N5CCN(C)CC5)c(O)c4c3C2=O)NC(=O)/C(C)=C\C=C\[C@H](C)[C@H](O)[C@@H](C)[C@@H](O)[C@@H](C)[C@H](OC(C)=O)[C@@H]1C [Rifampin, reference compound] | 0.05 µM | 0.04 µM |  |  | 
